No end group written: not given here.
Experiments:
[1] = test system: Rat primary cortical cultures; design: method as in PMID 25669902; conditions: cited from earlier work
Description: To assess peptide proteolytic stability, R18 and R18D neuroprotective efficacy after incubation with tPA, TNK or trypsin was examined in the glutamic acid excitotoxicity model. Peptides were added to culture wells (96-well plate format) 5 min prior to glutamic acid exposure by removing media and adding 50 µL of media containing R18 or R18D at a 2 µM concentration. To induce excitotoxicity, 50 µL of Minimal Essential Media (Life Technologies)/2% B27 (MEM/B27) containing glutamic acid (200 µM: final concentration 100 µM; L-glutamic acid. L-glutamic acid was prepared as a 10,000 µM stock in water ...

[2] = biological target: T1, TNK (Homo sapiens, UniProt P00750, H332A/K331A/N152Q/R333A/R334A/T138N); experiment: Halo clot thrombolysis assay, TNK thrombolysis of whole blood clots; type: biochemical; conditions: concurrent study, 0.5-16 µM peptide, TNK 5 nM, 27.5% human plasma
T1 construct: purchased Boehringer Ingelheim 50 mg vial
Description: (§1) We utilised a high throughput 96-well plate thrombolysis assay (“halo clot assay”) based on the procedure developed by Bonnard et al.. To reduce assay components the halo thrombus formation procedure was modified by replacing the original thrombotic mixture consisting of recombinant tissue factor and synthetic phospholipids reconstituted in 30 mM calcium, with thrombin, and reducing the pro-thrombotic volume (i.e., thrombin) from 5 to 3 µL and blood volume from 25 to 12 µL. Another modification to simplify clot formation consisted of adding the thrombin (3 µL; 500 nM in saline) to one side of the well and 12 µL of blood to the opposite side of well, before using a heat stretched Pasteur pipette with sealed end to mix the two liquids together using 4 to 5 circular motions around the edge of the well (halo clot). The original methodology involved adding the 5 μL of the clotting mixture to the edge of the well, and then using a micropipette to slowly release the 25 μL of blood to the edge of the well while at the same time maintaining a circular motion. Plates were incubated in a humidified 37 °C incubator for 1 h before use in the thrombolysis assay.
(§2) The thrombolysis assay involved adding 30 µL of Tris buffer (50 mM Tris–HCl, 100 mM NaCl, pH 7.4) with or without peptide followed by 55 µL Tris buffer containing tPA or TNK (5 nM final concentration) and 50% human plasma (final plasma concentration during thrombolysis 27.5%). The final concentration of peptide during thrombolysis ranged from 0.25 to 16 µM (note: an intravenous dose of R18D at 350 nmol/kg, which is likely to be neuroprotective achieves a Cmax of 0.7–0.9 µM in healthy male and female rats; unpublished observation). […] Following the addition of tPA or TNK into the wells, clot lysis was monitored over a 1-h period at 37 °C using a plate reader (Cytation5, BioTek, USA) by measuring absorbance at 510 nm every 1 min immediately after orbital shaking (205 rpm for 5 s). Controls consisted of wells with no thrombin (100% clot lysis; L100%) and wells with no tPA or TNK (0% clot lysis; L0%). At the 1-h time point, the percentage of thrombolysis (%T) in tPA or TNK treated samples (LTX) was calculated by transforming absorbance values based on the formula: % T = (LTX) − (L0%)/(L100%) − (L0%) × 100. In addition, during the 1-h period of clot lysis lag time and maximal activity (also known as maximum velocity or Vmax) of the thrombolysis reaction were calculated. The lag time is defined as the time interval between the first absorbance reading (time = 0) and the line of maximum slope of the thrombolysis reaction. The maximal activity is calculated from the maximum slope over the time course of the assay and reflects the capacity of an enzyme to catalyse a reaction (i.e., thrombolysis), with higher values representing higher catalytic activity (i.e., tPA/TNK induced plasmin thrombolysis).
(§3) For each thrombolysis assay, replicates for control wells (L0% and L100%) and tPA or TNK only treated wells consisted of n = 4–8. Replicates for tPA or TNK and peptide treated wells consisted of n = 4. For data analysis and graphical representations of the results, data from three independent thrombolytic assays were pooled. Studies consisted of R18D, R18 and NA-1 examined at the 0.5, 1, 2, 4, 8 or 16 µM concentrations performed concurrently on the same 96-well plate, in respective order. In addition, since R18D is known to be resistant to plasmin degradation and appeared to have the most impact on tPA or TNK thrombolysis, a separate set of three independent assays were performed for this peptide alone at concentrations of 0.25, 0.5, 1, 2, 4, 8 or 16 µM. Furthermore, the second dose study with R18D provided the opportunity to include a lower concentration (0.25 µM) of the peptide and to provide comparative data when only one peptide was examined in the thrombolysis assay per 96-well plate as opposed to examining the three peptides concurrently on the same plate. […]

[3] = test system: patients undergoing thrombectomy; conditions: ESCAPE-NA-1 trial, subgroup analysis; cited from earlier work
Source text: The cationic arginine-rich peptides (CARPs) poly-arginine-18 (R18; 18-mer of L-enantiomer arginine; net charge + 18), its D-enantiomer (R18D) and NA-1 (also known as nerinetide or TAT-NR2B9c; net charge + 7) represent emerging neuroprotective therapies for the acute treatment of ischaemic stroke, especially prior to thrombolysis and endovascular thrombectomy.

[4] = biological target: T2, tPA (Homo sapiens, UniProt P00750); experiment: Halo clot thrombolysis assay, tPA thrombolysis of whole blood clots; type: biochemical; conditions: tPA 5 nM, 27.5% human plasma; for Increase in tPA lag time / Increase in tPA thrombolysis maximal activity: concurrent study, 37 °C
T2 construct: purchased Boehringer Ingelheim, Germany 10 mg vial
Description: as §1, §2, §3

[5] = test system: tPA or TNK; conditions: cited from earlier work
Source text: Given the potential future application of the R18D, R18 and NA-1 peptides as ischaemic stroke neurotherapeutics, it is important to establish if they interfere with current and future standard of care treatments, namely alteplase (tPA; recombinant tissue plasminogen activator) and tenecteplase (TNK; a modified version of tPA) thrombolysis, which are routinely administered prior to thrombectomy. Similarly, it is also important to determine whether tPA or TNK may cause proteolytic degradation of the peptides directly or through the activation of plasminogen to plasmin, thereby reducing their pot ...

[6] = test system: tPA or TNK; type: biochemical, human
Description: as §1, §2
For each thrombolysis assay, replicates for control wells (L0% and L100%) and tPA or TNK only treated wells consisted of n = 4–8. Replicates for tPA or TNK and peptide treated wells consisted of n = 4. For data analysis and graphical representations of the results, data from three independent thrombolytic assays were pooled. Studies consisted of R18D, R18 and NA-1 examined at the 0.5, 1, 2, 4, 8 or 16 µM concentrations performed concurrently on the same 96-well plate, in respective order. […]

T2 sequence (P00750 36-562): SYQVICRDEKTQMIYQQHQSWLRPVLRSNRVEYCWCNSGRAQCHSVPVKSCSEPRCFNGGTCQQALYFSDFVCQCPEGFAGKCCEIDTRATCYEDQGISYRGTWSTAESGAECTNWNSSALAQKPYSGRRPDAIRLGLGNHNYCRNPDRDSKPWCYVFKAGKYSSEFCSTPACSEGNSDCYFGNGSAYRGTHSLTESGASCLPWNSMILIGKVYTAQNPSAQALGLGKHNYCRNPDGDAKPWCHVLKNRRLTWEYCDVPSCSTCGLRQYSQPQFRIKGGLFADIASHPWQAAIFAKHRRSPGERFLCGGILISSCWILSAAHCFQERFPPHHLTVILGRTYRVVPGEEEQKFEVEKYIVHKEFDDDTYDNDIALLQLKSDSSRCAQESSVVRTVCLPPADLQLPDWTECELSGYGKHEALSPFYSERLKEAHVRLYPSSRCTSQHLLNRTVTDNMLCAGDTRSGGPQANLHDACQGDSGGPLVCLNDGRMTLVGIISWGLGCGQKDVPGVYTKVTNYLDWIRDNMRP
T1 sequence (P00750 36-562 T138N/N152Q/K331A/H332A/R333A/R334A): as the sequence (P00750 36-562) above, with T103N, N117Q, K296A, H297A, R298A, R299A counted along it

YGRKKRRQRRRKLSSIESDV [NA-1, reference compound]
Neuroprotection in the glutamic acid excitotoxicity model [1]: no to little neuroprotection
Effect on TNK lag time vs TNK control [2]: did not significantly increase TNK lag time
Effect on TNK thrombolysis maximal activity vs TNK control [2]: did not significantly impact TNK thrombolysis maximal activity
Effect on percentage TNK thrombolysis at 1 h vs TNK control ([2]; 37 °C, 1 h): did not significantly inhibit TNK thrombolysis
Outcome of patients who received NA-1 but not alteplase compared with patients who received both NA-1 and alteplase [3]: significantly better functional outcomes, reduced mortality and reduced infarct volume
Increase in tPA lag time ([4]; peptide 1 µM): 5.4 min
Increase in tPA lag time ([4]; peptide 2 µM): 7.16 min
Increase in tPA thrombolysis maximal activity ([4]; peptide 2 µM): 40.68%
Increase in tPA thrombolysis maximal activity ([4]; peptide 4 µM): 45.1%
Increase in tPA thrombolysis maximal activity ([4]; peptide 8 µM): 58.65%
Increase in tPA thrombolysis maximal activity ([4]; peptide 16 µM): 45.65%
Effect on percentage tPA thrombolysis at 1 h vs tPA control ([4]; three peptides concurrently on the same plate, 0.5-16 µM peptide, Tris pH 7.4, 37 °C, 1 h, absorbance 510 nm, three independent assays pooled, n = 4, Dunnett's test): did not significantly inhibit thrombolysis
Interference with the thrombolytic activity of tPA or TNK [5]: does not interfere
Increase in lag time (time to the commencement of thrombolysis) ([6]; range over peptide concentrations 0.25-16 µM and both thrombolytics, 1-h assay): 0 to 7.16 min
Effect on maximal activity of the thrombolysis reaction ([6]; summary in abstract): appeared to increase the maximal activity
